Assay results taken from publication PMC10892041, “Vanadium Complexes with Thioanilide Derivatives of Amino Acids: Inhibition of Human Phosphatases and Specificity in Various Cell Models of Metabolic Disturbances” (Pharmaceuticals, 2024).

Legend:
[1] = tested on: hepatocytes HepG2; assay: Inhibition of hepatic gluconeogenesis (glucose synthesis); conditions: known inhibitors of gluconeogenesis; concentration not given
[2] = tested on: myocytes C2C12; assay: Viability of myocytes C2C12 after 24 h incubation (resazurin-based reagent); conditions: 50 µM
Description: (§1) Simultaneously with glucose consumption tests, the viability of myocytes C2C12 was examined due to their prolonged 24 h incubation with vanadium complexes.
(§2) Prolonged incubation of the cells with vanadium complexes, as was the case during the study of the effect on glucose consumption, more closely corresponds to the actual conditions of clinical use, also allowing for the identification of possible cytotoxic effects. […] A Resazurin-based reagent is reduced proportionally to the metabolic activity of cells as a result of the transference of electrons from NADPH+H^+, the amount of which strictly depends on glucose metabolism.

[3] = target: T1, PTP1B (Homo sapiens, UniProt P18031); assay: Inhibition of human recombinant tyrosine phosphatase PTP1B (DiFMUP fluorescence); format: biochemical; conditions: for Inhibition of PTP1B, percentage of inhibition of the control: 1 µM, control solvent only, SD did not exceed 6%
T1 construct: purchased Sigma-Aldrich
T1 sequence (P18031 1-435): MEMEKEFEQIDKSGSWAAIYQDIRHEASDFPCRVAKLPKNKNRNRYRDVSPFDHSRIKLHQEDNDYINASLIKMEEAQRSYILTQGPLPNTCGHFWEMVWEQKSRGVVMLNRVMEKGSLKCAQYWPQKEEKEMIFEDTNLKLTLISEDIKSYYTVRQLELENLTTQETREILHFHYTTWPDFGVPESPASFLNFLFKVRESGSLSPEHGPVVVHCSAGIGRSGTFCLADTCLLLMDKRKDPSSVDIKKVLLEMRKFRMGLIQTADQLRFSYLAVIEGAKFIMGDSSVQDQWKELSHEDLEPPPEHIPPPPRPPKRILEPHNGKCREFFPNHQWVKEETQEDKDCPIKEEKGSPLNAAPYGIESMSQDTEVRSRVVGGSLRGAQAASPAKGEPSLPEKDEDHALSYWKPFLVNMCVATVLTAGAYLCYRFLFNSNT
Description: (§3) To determine the ability of the tested compounds for inhibition tyrosine phosphatases, human recombinant proteins were used (Sigma-Aldrich). The reactions were performed in black opaque 384-well microplates (PerkinElmer, Waltham, MA, USA). An equal volume of phosphatase solution in a reaction buffer (25 mM of 3-(N-morpholino)propanesulfonic acid (MOPS), 50 mM NaCl, 1 mM dithiothreitol (DTT), and 0.05% Tween-20 (pH 7.0)) was added to the solution of the tested compound on microplate. These solutions were dispensed using an automated injector. The following final concentrations of the tested phosphatases were used: PTP1B 50 ng/mL, SHP1 400 ng/mL, SHP2 50 ng/mL, LAR 5 ng/mL, and PTPRA 100 ng/mL. After 10 min, a solution of phosphate 6,8-difluoro-4-methyl (DiFMUP; Thermo Fisher Scientific) was added until its final concentration was 0.1 mM. Samples were incubated for 20 miN at 23 °C, and then the measurements of fluorescence intensity (excitation 355 and emission […]) were performed on a multifunctional plate reader POLARstar Omega (BMG Labtech, Ortenberg, Germany). Assays were performed in triplicate. For the screening assays, the final concentration of the tested compounds was 1 µM. The results were expressed as percent inhibition of untreated control (enzyme with vehicle only) for the screening tests. […] IC50 were calculated using GraphPad Prism version 6.0 software (GraphPad Software, Boston, MA, USA).

[4] = target: T2, LAR (Homo sapiens, UniProt P10586); assay: Inhibition of human recombinant tyrosine phosphatase LAR (DiFMUP fluorescence); format: biochemical; conditions: for Inhibition of LAR, percentage of inhibition of the control: 1 µM, control solvent only, SD did not exceed 6%
T2 sequence (P10586 1352-1607 limits assumed): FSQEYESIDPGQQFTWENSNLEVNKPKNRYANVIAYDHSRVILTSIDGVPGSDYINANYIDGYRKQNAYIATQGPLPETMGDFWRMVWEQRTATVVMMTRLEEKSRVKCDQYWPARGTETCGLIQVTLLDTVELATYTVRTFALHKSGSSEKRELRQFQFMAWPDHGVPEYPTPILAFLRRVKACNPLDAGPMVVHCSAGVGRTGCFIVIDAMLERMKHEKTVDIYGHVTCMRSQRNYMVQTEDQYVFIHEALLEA
Description: as §3

[5] = tested on: myocytes C2C12; assay: Glucose consumption (utilization) by myocytes C2C12; format: cell-based, mouse; conditions: 50 µM (highest tested concentration); 24 h
Description: The myocyte C2C12 cell line (ATCC CRL-1772), a subclone of myoblasts from mouse muscles, was cultured according to standard protocol in DMEM supplemented with 10% fetal calf serum, 100 IU/ml penicillin, and […] streptomycin at 37 °C in 5% CO2. Cells were pleated on a 96-well microplate and after reach confluence were differentiated in medium with 2% horse serum. Differentiation medium was changed every 72 h.
Differentiated myocytes C2C12 were used after 8 days of differentiation. The culture medium was changed for medium with 0.2% bovine serum albumin, 100 IU/mL penicillin, and 100 µg/mL streptomycin, and after 2 hours of incubation, the medium was changed to fresh medium containing the tested compounds. […]
Glucose concentration was determined based on enzymatic reaction with glucose oxidase and fluorometrically detection reaction end product using an AmplexRed Glucose/Glucose Oxidase Kit (Thermo Fisher Scientific) according to the manufacturer’s protocol. […] Fluorescence signal was measured at excitation of 530 nm and emission of 580 nm using a multimodal microplate reader POLARStar Omega (BMG Labtech), and glucose concentration in samples was calculated in MARS Data Analysis Software version 3.02.R2 (BMG Labtech) based on glucose standards. […] The final results were expressed as the percent of controls containing cells and solvent only.

[6] = target: T3, SHP2 (Homo sapiens, UniProt Q06124); assay: Inhibition of human recombinant tyrosine phosphatase SHP2 (DiFMUP fluorescence); format: biochemical; conditions: for Inhibition of SHP2, percentage of inhibition of the control: 1 µM, control solvent only, SD did not exceed 6%
T3 construct: purchased Sigma-Aldrich
T3 sequence (Q06124 1-593): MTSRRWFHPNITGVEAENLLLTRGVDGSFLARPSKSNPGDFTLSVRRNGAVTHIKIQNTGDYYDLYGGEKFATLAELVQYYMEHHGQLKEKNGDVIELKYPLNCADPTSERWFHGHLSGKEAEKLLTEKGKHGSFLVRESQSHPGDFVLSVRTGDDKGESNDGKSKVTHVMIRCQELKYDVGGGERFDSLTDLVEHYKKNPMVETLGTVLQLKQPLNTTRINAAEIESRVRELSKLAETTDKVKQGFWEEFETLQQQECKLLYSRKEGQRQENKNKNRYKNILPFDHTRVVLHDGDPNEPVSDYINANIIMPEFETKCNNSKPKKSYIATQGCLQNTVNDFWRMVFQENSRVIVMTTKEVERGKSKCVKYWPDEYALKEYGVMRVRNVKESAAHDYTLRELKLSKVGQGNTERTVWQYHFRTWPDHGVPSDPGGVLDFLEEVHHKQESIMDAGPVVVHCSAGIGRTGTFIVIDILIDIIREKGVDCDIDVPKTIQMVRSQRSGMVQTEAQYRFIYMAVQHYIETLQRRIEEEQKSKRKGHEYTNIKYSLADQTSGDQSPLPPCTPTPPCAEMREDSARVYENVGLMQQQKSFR
Description: as §3

[7] = target: T4, SHP1 (Homo sapiens, UniProt P29350); assay: Inhibition of human recombinant tyrosine phosphatase SHP1 (DiFMUP fluorescence); format: biochemical; conditions: for Inhibition of SHP1, percentage of inhibition of the control: 1 µM, control solvent only, SD did not exceed 6%
T4 construct: purchased Sigma-Aldrich
T4 sequence (P29350 whole entry): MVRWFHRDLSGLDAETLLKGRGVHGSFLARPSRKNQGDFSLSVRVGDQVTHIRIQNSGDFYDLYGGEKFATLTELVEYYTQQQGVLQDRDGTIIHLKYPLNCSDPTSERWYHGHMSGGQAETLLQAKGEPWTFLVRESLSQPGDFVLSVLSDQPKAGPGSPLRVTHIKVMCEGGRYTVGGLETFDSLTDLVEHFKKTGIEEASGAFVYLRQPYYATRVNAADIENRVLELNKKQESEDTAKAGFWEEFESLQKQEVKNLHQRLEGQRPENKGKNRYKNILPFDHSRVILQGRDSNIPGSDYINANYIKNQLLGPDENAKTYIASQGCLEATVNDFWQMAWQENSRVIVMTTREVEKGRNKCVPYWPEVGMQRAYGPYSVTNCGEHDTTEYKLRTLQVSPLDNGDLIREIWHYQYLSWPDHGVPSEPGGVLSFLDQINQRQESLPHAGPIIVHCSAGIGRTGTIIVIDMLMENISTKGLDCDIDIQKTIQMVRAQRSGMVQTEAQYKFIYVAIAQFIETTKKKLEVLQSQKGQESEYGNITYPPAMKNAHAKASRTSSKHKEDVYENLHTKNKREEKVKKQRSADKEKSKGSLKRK
Description: as §3

[8] = tested on: myocytes C2C12; parameters: method as in doi:10.1016/j.poly.2020.114589; conditions: 50 µM; previously published by the authors; cited from earlier work
[9] = tested on: hepatocytes HepG2; assay: Transport of [14C]-deoxy-D-glucose into insulin-resistant hepatocytes (TNF or oleic acid); format: cell-based, human; conditions: 10 µM; p ≤ 0.05
Description: After 24 h incubation, the tested complexes were added. After 2 h incubation at 37 °C in 5% CO2, the medium was changed to low-glucose medium (1000 mg/L), and the tested complexes were added again, with further incubation for 4 h being conducted.
For cells proceeded as above, 2-deoxy-D-[U-14C]-glucose (250–350 mCi/mmol, NEC720A, PerkinElmer) solution in KRB with a total activity of 0.03 mCi was added to each well. […] Non-specific radioactivity was subtracted from each result (cpm). Two independent experiments with triplicates were conducted.
Next, the compounds in fresh medium were added, further incubation was carried out for 24 h, and the scintillation proximity assay for the uptake of radiolabeled 2-deoxy-D-[U-14C]-glucose was conducted as described in the section above.

[10] = target: T5, CDC25A (Homo sapiens, UniProt P30304); assay: Inhibition of human recombinant non-tyrosine phosphatase CDC25A (3-O-methylfluorescein phosphate); format: biochemical
T5 construct: purchased Sigma-Aldrich
T5 sequence (P30304 1-524): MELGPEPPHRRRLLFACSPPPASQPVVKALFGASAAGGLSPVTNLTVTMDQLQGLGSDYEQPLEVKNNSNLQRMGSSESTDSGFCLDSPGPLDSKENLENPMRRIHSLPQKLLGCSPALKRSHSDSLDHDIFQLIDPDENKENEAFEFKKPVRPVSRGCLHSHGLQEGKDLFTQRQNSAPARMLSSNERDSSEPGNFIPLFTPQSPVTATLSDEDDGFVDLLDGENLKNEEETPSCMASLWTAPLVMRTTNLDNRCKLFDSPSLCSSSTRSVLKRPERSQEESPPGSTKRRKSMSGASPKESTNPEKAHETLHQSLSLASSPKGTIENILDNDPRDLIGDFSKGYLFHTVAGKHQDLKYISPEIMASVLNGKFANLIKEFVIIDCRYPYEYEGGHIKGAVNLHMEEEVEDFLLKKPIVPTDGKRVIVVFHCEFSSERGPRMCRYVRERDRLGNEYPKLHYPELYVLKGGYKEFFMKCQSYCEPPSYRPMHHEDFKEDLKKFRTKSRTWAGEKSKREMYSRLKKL
Description: (§4) For the inhibition assay of non-tyrosine phosphatases, human recombinant proteins were used (Sigma-Aldrich). The reactions were performed in black opaque 384-well microplates (PerkinElmer). To the solution of the tested complexes, an equal volume of a test solution of phosphatase was added. CDC25A were diluted in reaction buffer to the final concentration of 400 ng/mL as for tyrosine phosphatases (described in the section above), and PPA2 (final 0.5 U/mL) was diluted in 50 mM Tris-HCl, 0.05% Tween-20, and 125 µg/mL protease-free bovine serum albumin (pH 7.0). These solutions were dispensed using an automated injector. After 10 min, a solution of phosphate 6,8-difluoro-4-methyl (DiFMUP; Thermo Fisher Scientific) was added for the PPA2 sample until the final concentration 0.1 mM. For CDC25A samples, 3-O-methylfluorescein phosphate for the final concentration of 0.2 mM was added. Samples were incubated for 180 min at 23 °C, and then the measurements of fluorescence intensity (excitation 355 and emission 560 nm) were performed on a multifunctional plate reader POLARstar Omega (BMG Labtech). Assays were performed in triplicate. The results were expressed as percent of inhibition of untreated control (enzyme with vehicle solvent only).

[11] = tested on: hepatocytes HepG2; conditions: 50 µM
Description: Experiments on the inhibition of hepatic gluconeogenesis in HepG2 hepatocytes by the vanadium complexes were carried out based on a previous description with some modifications [143]. Hepatocytes HepG2 in culture medium (as indicated above) were seeded on a half-area 96 microplate at the amount of 50,000 per well. After 16–24 h, cells were washed with PBS three times and one time with experimental medium (DMEM without glucose with 0.1% BSA, 2 µM L-glutamine, 15 mM HEPES, 1 mM sodium pyruvate, 10 mM calcium lactate, 100 IU/mL penicillin, and 100 mg/mL streptomycin). Cells were incubated in this medium for 3 h at 37 °C in 5% CO2, and the next medium was changed to the experimental medium with additional gluconeogenesis inductors: 10 µM dexamethasone, 100 µM 8-bromoadenosine 3′,5′-cyclic monophosphate sodium salt (8-Br-cAMP), and 500 µM 3-isobutyl-1-methylxanthine (IBMX). After adding the test compounds, the cells were incubated for 3 h at 37 °C in a 5% CO2 microplate, and then the supernatant was collected for glucose assay (as described in Section 4.2.6). Glucose synthesis was calculated as glucose concentration differences between experimental medium without cells and medium with cells after incubation with the tested compound. The final results were expressed as the percent of inhibition of glucose synthesis by cells incubated with solvent only.

[12] = target: PP2A (Homo sapiens, UniProt P67775); assay: Inhibition of human recombinant non-tyrosine phosphatase PP2A (DiFMUP); format: biochemical
Sequence of PP2A (P67775 whole entry): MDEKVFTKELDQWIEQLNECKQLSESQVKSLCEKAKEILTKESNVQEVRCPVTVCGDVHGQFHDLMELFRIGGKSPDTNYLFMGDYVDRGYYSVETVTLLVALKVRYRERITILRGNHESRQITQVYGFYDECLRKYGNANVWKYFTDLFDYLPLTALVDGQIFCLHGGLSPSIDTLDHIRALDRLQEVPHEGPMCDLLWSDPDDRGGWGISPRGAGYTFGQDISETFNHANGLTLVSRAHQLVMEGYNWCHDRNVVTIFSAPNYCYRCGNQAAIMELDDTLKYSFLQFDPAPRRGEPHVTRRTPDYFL
Description: as §4

[13] = Viability of myocytes C2C12 after 24 h incubation (resazurin-based reagent); conditions: mouse, C2C12 myocytes
Description: as §1, §2

NC(=O)c1ncn([C@@H]2O[C@H](CO)[C@@H](O)[C@H]2O)c1N [AICAR, 5-aminoimidazole-4-carboxamide riboside]
Inhibition of glucose synthesis by hepatocytes, experimental control compounds [1]: showed inhibition of glucose synthesis

COc1ccc(C(=O)NN=Cc2cc(Br)ccc2[O][V]2[O]C(c3ccc(OC)cc3)=NN=Cc3cc(Br)ccc3[O]2)cc1 [VC055, [V(L11)(HL11)]]
Cell viability of myocytes C2C12, % of the control [2]: 127 ± 5%
Inhibition of PTP1B, percentage of inhibition of the control [3]: 24%
Inhibition of LAR, percentage of inhibition of the control [4]: 18%
Glucose consumption by myocytes C2C12, % of the control [5]: No statistically significant effect
Inhibition of SHP2, percentage of inhibition of the control [6]: 57%
Inhibition of SHP1, percentage of inhibition of the control [7]: 56%

O=C(NN=Cc1cc(Br)ccc1[O][V]1[O]C(c2cc3ccccc3cc2O)=NN=Cc2cc(Br)ccc2[O]1)c1cc2ccccc2cc1O [VC067, [V(L12)(HL12)]]
Transport of [14C]-deoxy-D-glucose into C2C12 myocytes, % of the control [8]: 199 ± 3 % of control
Inhibition of PTP1B, percentage of inhibition of the control [3]: 42%
Inhibition of LAR, percentage of inhibition of the control [4]: 39%
Inhibition of SHP2, percentage of inhibition of the control [6]: 74%
Reversal of decreased [14C]-deoxy-D-glucose transport, insulin resistance induced by oleic acid [9]: reversed the decrease
Inhibition of SHP1, percentage of inhibition of the control [7]: 70%

O=C(NN=Cc1cc(Br)ccc1[O-])c1ccc([N+](=O)[O-])cc1.O=[N+]([O-])c1ccc(C([O-])=NN=Cc2cc(Br)ccc2[O-])cc1.[V+3] [VC068, [V(L13)(HL13)]]
Transport of [14C]-deoxy-D-glucose into C2C12 myocytes, % of the control [8]: 218 ± 10 % of control
Inhibition of PTP1B, percentage of inhibition of the control [3]: 40%
Log IC50 ± SD PTP1B ([3]; logarithm of IC50): −5.69 ± 0.02
IC50 ([3]; read-out: IC50 PTP1B): 2.03 µM
Inhibition of CDC25A, percentage inhibition of control ± SD ([10]; 1 µM): 54 ± 3%
Inhibition of CDC25A, percentage inhibition of control ± SD ([10]; 10 µM): 62 ± 2%
IC50 [4]: 0.619 µM
Inhibition of LAR, percentage of inhibition of the control [4]: 33%
IC50 [6]: 0.235 µM
Inhibition of SHP2, percentage of inhibition of the control [6]: 74%
Inhibition of glucose synthesis (gluconeogenesis) in hepatocytes [11]: 79 ± 18%
Reversal of decreased [14C]-deoxy-D-glucose transport, insulin resistance induced by TNF [9]: reversed the decrease
Inhibition of PP2A, percentage inhibition of control ± SD ([12]; 1 µM): 26 ± 12%
Inhibition of PP2A, percentage inhibition of control ± SD ([12]; 10 µM): 55 ± 15%
IC50 [7]: 0.517 µM
Inhibition of SHP1, percentage of inhibition of the control [7]: 70%
Log IC50 ± SD SHP1 ([7]; logarithm of IC50): −6.29 ± 0.02

CN(CCOc1ccc(CC2SC(=O)NC2=O)cc1)c1ccccn1 (stereo not shown) [rosiglitazone, reference compound]
viability at 24 h, 50 µM [13]: 120 ± 7%
